We go through twelve compounds from patent EP0612731B1, “Novel guinolone and naphthyridone derivatives” (BAYER AG, priority 1993, dated 1994).

pIC50: −log10 of the molar value.

The test system of the test is HIV. The experiment in a line: HIV infection in cell culture (syncytium formation in HIV-infected PBLs, modified method of Pauwels et al.). Type of test: cell-based. To be noted: Human immunodeficiency virus 1, Lymphocyte, 72 h; HIV-infected normal human blood lymphocytes (PBL's); concentration suppressing 50% (ca. 10 Syncytien) of virus-induced syncytia; microscopic read-out day 3 to 6 after infection, 37°C. As for the experimental part:
Der HIV-Test wurde mit geringen Modifikationen nach der Methode von Pauwels et al. [vgl. Journal of Virological Methods 20, (1988), 309-321] durchgeführt.
Normale menschliche Blutlymphozyten (PBL's) wurden über Ficoll-Hypaque angereichert und im RPMI 1640, 20% fötales Kälberserum mit Phythaemagglutinin (90 µg/ml) und Interleukin-2 (40 U/ml) stimuliert. Zur Infektion mit dem infektiösen HIV wurden PBL's pelletiert und das Zellpellet wurde anschließend in 1 ml HIV-Virusadsorptionslösung suspendiert und 1 Stunde bei 37°C inkubiert.
Die Virusadsorptionslösung wurde zentrifugiert und das infizierte Zellpellet in Wachstumsmedium aufgenommen, so daß 1 x 10^5 Zellen pro ml eingestellt waren. Die derart infizierten Zellen wurden zu 1 x 10^4 Zellen/Napf in die Näpfe von 96er Mikrotiterplatten pipettiert.
Die erste vertikale Reihe der Mikrotiterplatte enthielt nur Wachstumsmedium und Zellen, die nicht infiziert, aber ansonsten genauso wie oben beschrieben, behandelt worden waren (Zellkontrolle). Die zweite vertikale Reihe der Mikrotiterplatte erhielt nur HIV-infizierte Zellen (Viruskontrolle) in Wachstumsmedium. Die übrigen Näpfe enthielten die erfindungsgemäßen Verbindungen in unterschiedlichen Konzentrationen, ausgehend von den Näpfen der 3. vertikalen Reihe der Mikrotiterplatte, von der die Prüfsubstanzen in 2er Schritten 2^10fach verdünnt wurden.
Die Testansätze wurden so lange bei 37°C inkubiert, bis in der unbehandelten Viruskontrolle die für das HIV typische Syncytienbildung auftrat (zwischen Tag 3 und 6 nach Infektion), die dann mikroskopisch ausgewertet wurde. In der unbehandelten Viruskontrolle resultierten unter diesen Testbedingungen etwa 20 Syncytien, während die unbehandelte Zellkontrolle keine Syncytien aufwies.
Die IC50-Werte wurden als die Konzentration der erfindungsgemäßen Verbindungen ermittelt, bei der 50% (ca. 10 Syncytien) der virusinduzierten Syncytien durch die Behandlung mit der erfindungsgemäßen Verbindung unterdruckt waren.
As a reminder, the pIC50 is the IC50 on a negative log10 scale, so that one unit is a factor of ten. With `COc1cccc(N2CCN(c3cc4c(cc3F)c(=O)c(C(=O)O)cn4-c3ccc(Cn4ccnn4)cc3)CC2)c1` [Beispiel 8], the pIC50 was 5.52. The result for `O=C(O)c1cn(-c2ccc(Cn3ccnn3)cc2)c2cc(N3CCN(c4cccc(Cl)c4)CC3)c(F)cc2c1=O` [Beispiel 14] reads 6.15. With `O=C(O)c1cn(-c2ccc(Cn3ccnn3)cc2)c2nc(N3CCN(c4ccccc4)CC3)c(F)cc2c1=O` [Beispiel 20, 6-Fluor-1,4-dihydro-4-oxo-7-(4-phenylpiperazin-1-yl)-1-[4-(1H-1,2,3-triazol-1-yl-methyl)-phenyl]-1,8-naphthyridin-3-carbonsäure], the pIC50 was 6.70. Take `O=C(O)c1cn(-c2ccc(Cn3ccnn3)cc2)c2nc(N3CCN(c4cccc(Cl)c4)CC3)c(F)cc2c1=O` [Beispiel 23]: the pIC50 is 6.40. The result for `O=C(O)c1cn(-c2ccc(Cn3nccn3)cc2)c2cc(N3CCN(c4cccc(Cl)c4)CC3)c(F)cc2c1=O` [Beispiel 31] reads 6.15; that for `O=C(O)c1cn(-c2ccc(Cn3cncn3)cc2)c2cc(N3CCN(c4ccccc4)CC3)c(F)cc2c1=O` [Beispiel 39, 6-Fluor-1,4-dihydro-4-oxo-7-(4-phenylpiperazin-1-yl)-1-[4-(1H-1,2,4-triazol-1-yl-methyl)phenyl]-3-chinolin-carbonsäure], 6.60.

As to `O=C(O)c1cn(-c2ccc(Cn3cncn3)cc2)c2nc(N3CCN(c4ccccc4)CC3)c(F)cc2c1=O` [Beispiel 50, 6-Fluor-1,4-dihydro-4-oxo-7-(4-phenylpiperazin-1-yl)-1-[4-(1H-1,2,4-triazol-1-yl-methyl)phenyl]-1,8-naphthyridin-3-carbonsäure], the pIC50 was 6.30.

As for `O=C(O)c1cn(-c2ccc(Cn3cncn3)cc2)c2nc(N3CCN(c4ccc(F)cc4)CC3)c(F)cc2c1=O` [Beispiel 51], the pIC50 was 6.70.

For `O=C(O)c1cn(-c2cccc(Cn3ccnn3)c2)c2cc(N3CCN(c4cccc(Cl)c4)CC3)c(F)cc2c1=O` [Beispiel 69], the pIC50 was 6.15. Consider `O=C(O)c1cn(-c2cccc(Cn3cncn3)c2)c2nc(N3CCN(c4ccc(Cl)cc4)CC3)c(F)cc2c1=O` [Beispiel 92], for which the pIC50 is 6.22.

With `CCOC(=O)c1cn(-c2ccccc2Cn2nccn2)c2cc(N3CCN(c4cccc(Cl)c4)CC3)c(F)cc2c1=O` [Beispiel 113], the pIC50 is 5.70.

`CCOc1ccccc1N1CCN(c2c(F)cc3c(=O)c(C(=O)O)cn(-c4ccc(Cn5cncn5)cc4)c3c2F)CC1` [Beispiel 146]: the negative logarithm of the IC50 (pIC50) was 6.15.
